Test results from patent publication US11739098B2 (BRISTOL-MYERS SQUIBB COMPANY, priority 2017, dated 2023).

What was measured:
Assay type in all cases: cell-based
[1] = biological target: T1, human TLR9 (Homo sapiens, UniProt Q9NR96); assay: TLR9 inhibition reporter assay (HEK-Blue cells, SEAP reporter, ODN2006 stimulation); details: HEK-Blue cells overexpressing human TLR9, SEAP reporter, ODN2006 5 nM
T1 construct: host or cells: HEK-Blue cells (HEK293-derived reporter line)
T1 sequence (Q9NR96 26-1032): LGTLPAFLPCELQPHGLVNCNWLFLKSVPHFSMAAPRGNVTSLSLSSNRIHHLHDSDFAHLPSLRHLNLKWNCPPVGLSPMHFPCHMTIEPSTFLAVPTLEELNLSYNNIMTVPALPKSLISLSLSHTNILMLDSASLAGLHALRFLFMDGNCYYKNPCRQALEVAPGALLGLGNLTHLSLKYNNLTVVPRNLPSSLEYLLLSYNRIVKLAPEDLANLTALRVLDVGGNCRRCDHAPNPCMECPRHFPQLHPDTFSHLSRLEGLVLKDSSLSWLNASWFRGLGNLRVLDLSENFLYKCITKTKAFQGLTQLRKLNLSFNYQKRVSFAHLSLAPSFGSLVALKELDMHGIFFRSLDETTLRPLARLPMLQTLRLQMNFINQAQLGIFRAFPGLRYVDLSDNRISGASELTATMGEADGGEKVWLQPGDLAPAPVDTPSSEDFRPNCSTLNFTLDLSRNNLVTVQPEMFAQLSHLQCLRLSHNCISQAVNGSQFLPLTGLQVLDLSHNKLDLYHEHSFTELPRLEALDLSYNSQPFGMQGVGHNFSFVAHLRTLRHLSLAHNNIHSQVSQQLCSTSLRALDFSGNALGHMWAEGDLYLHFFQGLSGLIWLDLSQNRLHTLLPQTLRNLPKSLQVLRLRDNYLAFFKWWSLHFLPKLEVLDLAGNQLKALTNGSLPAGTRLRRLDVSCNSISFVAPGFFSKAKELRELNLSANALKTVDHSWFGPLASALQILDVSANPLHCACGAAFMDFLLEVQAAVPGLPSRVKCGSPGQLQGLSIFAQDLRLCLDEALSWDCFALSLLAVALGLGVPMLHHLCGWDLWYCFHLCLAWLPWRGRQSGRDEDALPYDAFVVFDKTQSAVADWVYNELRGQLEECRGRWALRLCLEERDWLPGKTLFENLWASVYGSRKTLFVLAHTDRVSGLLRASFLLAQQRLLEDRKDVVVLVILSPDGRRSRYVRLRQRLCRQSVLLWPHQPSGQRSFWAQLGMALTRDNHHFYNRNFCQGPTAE
Method in brief: (§1)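 Percent inhibition of agonist-induced SEAP secretion in HEK-Blue cells after 22 h at 37 °C. Stimuli: 7.5 μM gardiquimod, 15.9 μM R848, 5 nM ODN2006 for TLR7, TLR8 and TLR9, added after 30 min compound exposure over a 0.05 nM–50 μM range.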

[2] = biological target: T2, human TLR7 (Homo sapiens, UniProt Q9NYK1); assay: TLR7 inhibition reporter assay (HEK-Blue cells, SEAP reporter, gardiquimod stimulation); details: HEK-Blue cells overexpressing human TLR7, SEAP reporter, gardiquimod 7.5 μM
T2 construct: host or cells: HEK-Blue cells (HEK293-derived reporter line)
T2 sequence (Q9NYK1 27-1049): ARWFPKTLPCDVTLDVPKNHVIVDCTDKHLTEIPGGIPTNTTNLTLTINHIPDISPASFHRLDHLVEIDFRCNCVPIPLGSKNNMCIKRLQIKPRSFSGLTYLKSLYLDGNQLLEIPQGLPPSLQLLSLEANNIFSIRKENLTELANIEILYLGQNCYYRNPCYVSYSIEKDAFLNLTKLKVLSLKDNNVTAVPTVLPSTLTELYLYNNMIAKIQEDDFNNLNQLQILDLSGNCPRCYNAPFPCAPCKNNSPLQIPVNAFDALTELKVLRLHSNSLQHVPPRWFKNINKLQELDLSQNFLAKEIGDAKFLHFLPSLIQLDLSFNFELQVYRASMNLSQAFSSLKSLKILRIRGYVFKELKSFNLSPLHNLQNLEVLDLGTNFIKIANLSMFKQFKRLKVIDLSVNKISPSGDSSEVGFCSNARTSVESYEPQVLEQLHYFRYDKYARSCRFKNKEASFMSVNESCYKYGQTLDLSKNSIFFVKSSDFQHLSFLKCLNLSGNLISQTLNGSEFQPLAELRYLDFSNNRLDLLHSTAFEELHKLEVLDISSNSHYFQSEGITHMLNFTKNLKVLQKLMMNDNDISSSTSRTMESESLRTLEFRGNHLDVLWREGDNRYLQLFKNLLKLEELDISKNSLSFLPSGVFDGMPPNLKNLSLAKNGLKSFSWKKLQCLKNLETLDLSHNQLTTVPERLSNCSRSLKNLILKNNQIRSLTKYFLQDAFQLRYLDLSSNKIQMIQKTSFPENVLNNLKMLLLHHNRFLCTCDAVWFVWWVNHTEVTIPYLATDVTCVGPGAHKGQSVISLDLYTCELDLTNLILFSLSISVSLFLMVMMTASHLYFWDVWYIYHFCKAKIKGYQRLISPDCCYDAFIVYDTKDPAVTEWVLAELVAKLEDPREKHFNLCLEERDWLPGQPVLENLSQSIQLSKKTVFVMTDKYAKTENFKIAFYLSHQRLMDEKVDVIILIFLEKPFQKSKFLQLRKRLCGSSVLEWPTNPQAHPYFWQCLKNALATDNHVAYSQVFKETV
Method in brief: as §1

[3] = biological target: T3, human TLR8 (Homo sapiens, UniProt Q9NR97); assay: TLR8 inhibition reporter assay (HEK-Blue cells, SEAP reporter, R848 stimulation); details: HEK-Blue cells overexpressing human TLR8, SEAP reporter, R848 15.9 μM
T3 construct: host or cells: HEK-Blue cells (HEK293-derived reporter line)
T3 sequence (Q9NR97 27-1041): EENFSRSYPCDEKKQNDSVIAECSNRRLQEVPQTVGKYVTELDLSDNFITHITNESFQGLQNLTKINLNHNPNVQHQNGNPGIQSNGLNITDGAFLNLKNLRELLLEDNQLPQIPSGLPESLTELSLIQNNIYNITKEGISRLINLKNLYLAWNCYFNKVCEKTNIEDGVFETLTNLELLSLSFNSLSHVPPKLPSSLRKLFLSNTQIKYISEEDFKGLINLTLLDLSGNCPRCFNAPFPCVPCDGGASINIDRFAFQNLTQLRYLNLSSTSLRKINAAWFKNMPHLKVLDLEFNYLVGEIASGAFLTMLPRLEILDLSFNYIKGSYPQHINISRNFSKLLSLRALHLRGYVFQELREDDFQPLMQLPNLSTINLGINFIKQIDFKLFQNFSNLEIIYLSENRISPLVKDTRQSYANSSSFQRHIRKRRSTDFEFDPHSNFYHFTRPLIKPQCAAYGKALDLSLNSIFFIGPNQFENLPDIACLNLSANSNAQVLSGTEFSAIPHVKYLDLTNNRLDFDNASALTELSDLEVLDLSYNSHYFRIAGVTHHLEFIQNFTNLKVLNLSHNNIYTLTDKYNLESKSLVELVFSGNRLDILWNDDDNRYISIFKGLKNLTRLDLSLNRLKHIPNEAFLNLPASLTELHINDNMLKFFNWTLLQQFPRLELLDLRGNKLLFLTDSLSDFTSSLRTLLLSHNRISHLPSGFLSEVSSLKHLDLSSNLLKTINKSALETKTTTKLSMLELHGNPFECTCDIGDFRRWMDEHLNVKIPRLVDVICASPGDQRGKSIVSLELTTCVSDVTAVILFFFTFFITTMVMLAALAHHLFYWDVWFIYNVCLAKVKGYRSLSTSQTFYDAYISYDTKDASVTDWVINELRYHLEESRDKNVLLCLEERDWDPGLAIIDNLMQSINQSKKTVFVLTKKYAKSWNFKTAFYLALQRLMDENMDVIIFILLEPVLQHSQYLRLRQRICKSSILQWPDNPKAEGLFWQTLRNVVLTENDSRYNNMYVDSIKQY
Method in brief: as §1

IC50 [1] | IC50 [2] | IC50 [3] | Compound
1000 to 50000 nM | < 100 nM | 100 to 1000 nM | CCc1c(C)c(-c2[nH]c3ccc(C4CCN(CC(=O)NC)CC4)cc3c2C(C)C)cn2ccnc12 [Example 418, 2-(4-(2-(8-ethyl-7-methylimidazo[1,2-a]pyridin-6-yl)-3-isopropyl-1H-indol-5-yl)piperidin-1-yl)-N-methylacetamide]
1000 to 50000 nM | < 100 nM | < 100 nM | CC(C)c1c(-c2ccnc3[nH]ncc23)[nH]c2ccc(C3CCN(C(=O)CNCC(C)(C)N4CCOCC4)CC3)cc12 [Example 580, 1-(4-(3-isopropyl-2-(1H-pyrazolo[3,4-b]pyridin-4-yl)-1H-indol-5-yl)piperidin-1-yl)-2-((2-methyl-2-morpholinopropyl)amino)ethan-1-one]
100 to 1000 nM | > 50000 nM | > 3130 nM | CNCCN1CCC(c2ccc3[nH]c(-c4cncc5ccccc45)c(C)c3c2)CC1 [Example 665, 2-(4-(2-(isoquinolin-4-yl)-3-methyl-1H-indol-5-yl)piperidin-1-yl)-N-methylethan-1-amine]
1000 to 50000 nM | < 100 nM | < 100 nM | Cc1cc(-c2[nH]c3ccc(C4CCN(C(=O)CN(C)C)CC4)cc3c2C(C)C)nn2ncnc12 [Example 454, 2-(dimethylamino)-1-(4-(3-isopropyl-2-(8-methyl-[1,2,4]triazolo[1,5-b]pyridazin-6-yl)-1H-indol-5-yl)piperidin-1-yl)ethan-1-one]
100 to 1000 nM | < 100 nM | < 100 nM | CC(C)c1c(-c2ccnc3[nH]ncc23)[nH]c2cc(Cl)c(C3CCNCC3)cc12 [Example 252, 4-(6-chloro-3-isopropyl-5-(piperidin-4-yl)-1H-indol-2-yl)-1H-pyrazolo[3,4-b]pyridine]
1000 to 50000 nM | < 100 nM | < 100 nM | COc1cc(-c2[nH]c3ccc(C4CCN(CC(=O)N(C)C)CC4)cc3c2C(C)C)cn2cc(C(=O)N(C)C)nc12 [Example 432, 6-(5-(1-(2-(dimethylamino)-2-oxoethyl)piperidin-4-yl)-3-isopropyl-1H-indol-2-yl)-8-methoxy-N,N-dimethylimidazo[1,2-a]pyridine-2-carboxamide]
100 to 1000 nM | < 100 nM | 100 to 1000 nM | Cc1nc2c(C)cc(-c3[nH]c4ccc(C5CCN(CC(=O)N(C)C)CC5)cc4c3C(C)C)cn2c1C [Example 396, 2-(4-(3-isopropyl-2-(2,3,8-trimethylimidazo[1,2-a]pyridin-6-yl)-1H-indol-5-yl)piperidin-1-yl)-N,N-dimethylacetamide]
1000 to 50000 nM | < 100 nM | < 100 nM | CC(C)c1c(-c2ccc(C#N)c3ncccc23)[nH]c2ccc(C3CCN(CC(C)(C)O)CC3)cc12 [Example 766, 5-(5-(1-(2-hydroxy-2-methylpropyl)piperidin-4-yl)-3-isopropyl-1H-indol-2-yl)quinoline-8-carbonitrile]
100 to 1000 nM | < 100 nM | < 100 nM | CC(C)c1c(-c2ccc3onc(N)c3c2)[nH]c2ccc(C3CCNCC3)cc12 [Example 7, 5-(3-isopropyl-5-(piperidin-4-yl)-1H-indol-2-yl)benzo[d]isoxazol-3-amine]
< 100 nM | < 100 nM | < 100 nM | CNCCN1CCC(c2ccc3[nH]c(-c4ccc5ncnn5n4)c(C)c3c2)CC1 [Example 651, 2-(4-(2-([1,2,4]triazolo[1,5-b]pyridazin-6-yl)-3-methyl-1H-indol-5-yl)piperidin-1-yl)-N-methylethan-1-amine]
1000 to 50000 nM | 1000 to 50000 nM | 1000 to 50000 nM | CC(C)c1c(-c2ccc3[nH]ccc3c2)[nH]c2ccc(C3CCNCC3)cc12 [Example 66, 3-isopropyl-5-(piperidin-4-yl)-1H,1′H-2,5′-biindole]
1000 to 50000 nM | 1000 to 50000 nM | > 3130 nM | CNCCN1CCC(c2ccc3[nH]c(-c4cccc5cccnc45)c(C)c3c2)CC1 [Example 662, N-methyl-2-(4-(3-methyl-2-(quinolin-8-yl)-1H-indol-5-yl)piperidin-1-yl)ethan-1-amine]
100 to 1000 nM | 100 to 1000 nM | < 100 nM | CCc1c(-c2cnc3[nH]ncc3c2)[nH]c2ccc(C3CCN(C4CCN(C(C)C)CC4)CC3)cc12 [Example 819, 5-(3-ethyl-5-(1′-isopropyl-[1,4′-bipiperidin]-4-yl)-1H-indol-2-yl)-1H-pyrazolo[3,4-b]pyridine]
1000 to 50000 nM | < 100 nM | < 100 nM | Cc1cc(-c2[nH]c3ccc(C4CCN(CC(=O)N(C)C)CC4)cc3c2C(C)C)cc2ocnc12 [Example 291, 2-(4-(3-isopropyl-2-(4-methylbenzo[d]oxazol-6-yl)-1H-indol-5-yl)piperidin-1-yl)-N,N-dimethylacetamide]
